The inhibition is the change of the read-out against control, counted positive when it falls. As usually defined, the ED50 is the dose at which the effect has come halfway, by size or by number of responders. What is called TD50 is the dose at which the toxic effect under study appears in half of the subjects.

Each structure is given as a SMILES string.

The text below walks through data of ChEMBL document CHEMBL3875185, “Structure-anticonvulsant activity studies in the group of (E)-N-cinnamoyl aminoalkanols derivatives monosubstituted in phenyl ring with 4-Cl, 4-CH3 or 2-CH3” (Bioorg Med Chem, 2017).

For data set [1], the target named is T1, Adenosine receptor A1 (Homo sapiens) (UniProt P30542).
T1 sequence (whole entry): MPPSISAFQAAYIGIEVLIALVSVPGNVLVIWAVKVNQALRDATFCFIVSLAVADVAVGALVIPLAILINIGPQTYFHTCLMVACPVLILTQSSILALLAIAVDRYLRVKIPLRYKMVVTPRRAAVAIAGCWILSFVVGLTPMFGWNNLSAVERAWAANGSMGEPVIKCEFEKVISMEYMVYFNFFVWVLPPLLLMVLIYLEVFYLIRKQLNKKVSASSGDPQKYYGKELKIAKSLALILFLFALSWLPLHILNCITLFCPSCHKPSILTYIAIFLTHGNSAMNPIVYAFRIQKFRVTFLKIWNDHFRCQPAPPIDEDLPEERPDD
The data set can be described thus: Displacement of [3H]DPCPX from human recombinant adenosine receptor A1 expressed in CHO cells at 100 uM measured after 60 mins by scintillation counting method relative to control. Format: cell-based. A general note: Displacement assays read how much labelled ligand stays bound in the presence of the test substance.

The subject of data set [2] is Mus musculus. The experiment in a line: Neurotoxicity in mouse assessed as induction of motor impairment at 100 mg/kg, ip measured at 4 hrs post dose by rotarod method. The format is toxicity, organism-based. The settings on record: in vivo. (In general: Falling from the rotarod earlier than controls is read as motor impairment.)
Data set [3] deals with Rattus norvegicus. The experiment in a line: Neurotoxicity in Sprague-Dawley rat assessed as behavioral change at 30 mg/kg, po measured at 1 hr post dose. Format: toxicity, organism-based. The settings on record: in vivo.
Data set [4] concerns Mus musculus. The data set can be described thus: Anticonvulsant activity in ip dosed maximal electroshock induced seizure mouse model assessed as suppression in hindlimb tonic extension. The format is functional. Background: In the maximal electroshock model the usual endpoint is tonic extension of the hind limbs.
Data set [5] can be described thus: Neurotoxicity in ip dosed mouse. To be noted: in vivo. Format: toxicity, organism-based.
Data set [6] relates to Rattus norvegicus. The data set can be described thus: Anticonvulsant activity in ip dosed maximal electroshock induced seizure Sprague-Dawley rat model assessed as suppression in hindlimb tonic extension by measuring time to peak effect. The format is functional.
The subject of data set [7] is Rattus norvegicus. The data set can be described thus: Anticonvulsant activity in po dosed maximal electroshock induced seizure Sprague-Dawley rat model assessed as suppression in hindlimb tonic extension. Format: functional.
A short description of data set [8]: Protection index, ratio of TD50 for neurotoxicity in po dosed Sprague-Dawley rat model to ED50 for po dosed maximal electroshock induced seizure Sprague-Dawley rat model. To be noted: in vivo, read-out: Ratio TD50/ED50. Format: toxicity, organism-based.
For data set [9], the target named is Melatonin receptor type 1A (Homo sapiens) (UniProt P48039). The data set can be described thus: Displacement of [125I]2-iodomelatonin from human recombinant MT1 receptor expressed in CHO cells at 100 uM measured after 60 mins by scintillation counting method relative to control. The format is cell-based.
Chain of Melatonin receptor type 1A (Homo sapiens) (P48039 whole entry): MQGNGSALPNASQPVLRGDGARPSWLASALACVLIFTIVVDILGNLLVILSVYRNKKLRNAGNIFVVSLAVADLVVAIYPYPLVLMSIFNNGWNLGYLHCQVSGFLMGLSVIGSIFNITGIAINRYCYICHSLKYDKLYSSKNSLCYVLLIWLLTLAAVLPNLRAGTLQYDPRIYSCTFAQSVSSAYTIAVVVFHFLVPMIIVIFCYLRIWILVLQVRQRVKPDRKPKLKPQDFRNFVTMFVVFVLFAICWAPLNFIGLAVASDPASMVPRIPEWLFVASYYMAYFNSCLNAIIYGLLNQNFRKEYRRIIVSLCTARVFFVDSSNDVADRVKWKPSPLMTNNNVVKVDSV
For data set [10], the target named is T2, Substance-K receptor (Homo sapiens) (UniProt P21452).
T2 sequence (whole entry): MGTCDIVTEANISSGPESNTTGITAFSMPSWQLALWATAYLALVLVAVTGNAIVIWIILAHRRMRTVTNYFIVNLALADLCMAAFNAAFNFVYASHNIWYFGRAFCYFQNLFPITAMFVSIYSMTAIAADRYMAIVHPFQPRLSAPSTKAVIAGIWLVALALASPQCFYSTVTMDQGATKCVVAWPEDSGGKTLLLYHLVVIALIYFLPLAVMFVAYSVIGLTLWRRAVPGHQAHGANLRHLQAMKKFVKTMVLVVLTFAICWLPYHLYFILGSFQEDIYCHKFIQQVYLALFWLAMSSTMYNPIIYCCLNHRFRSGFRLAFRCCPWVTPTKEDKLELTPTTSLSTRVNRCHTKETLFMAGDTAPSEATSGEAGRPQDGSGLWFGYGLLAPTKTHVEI
The data set can be described thus: Displacement of [125I]NKA from human recombinant NK2 receptor expressed in CHO cells at 100 uM measured after 60 mins by scintillation counting method relative to control. The format is cell-based.

For data set [11], the species on record is Rattus norvegicus. The experiment in a line: Displacement of [3H]TCP from rat cerebral cortex phencyclidine receptor at 100 uM measured after 120 mins by scintillation counting method relative to control.
The species entered for data set [12] is Rattus norvegicus. The data set can be described thus: Displacement of [35S]dATPaS from rat cerebral cortex P2Y receptor at 100 uM measured after 60 mins by scintillation counting method relative to control.
Data set [13] addresses T3, 5-hydroxytryptamine receptor 1A (Homo sapiens) (UniProt P08908).
T3 sequence (whole entry): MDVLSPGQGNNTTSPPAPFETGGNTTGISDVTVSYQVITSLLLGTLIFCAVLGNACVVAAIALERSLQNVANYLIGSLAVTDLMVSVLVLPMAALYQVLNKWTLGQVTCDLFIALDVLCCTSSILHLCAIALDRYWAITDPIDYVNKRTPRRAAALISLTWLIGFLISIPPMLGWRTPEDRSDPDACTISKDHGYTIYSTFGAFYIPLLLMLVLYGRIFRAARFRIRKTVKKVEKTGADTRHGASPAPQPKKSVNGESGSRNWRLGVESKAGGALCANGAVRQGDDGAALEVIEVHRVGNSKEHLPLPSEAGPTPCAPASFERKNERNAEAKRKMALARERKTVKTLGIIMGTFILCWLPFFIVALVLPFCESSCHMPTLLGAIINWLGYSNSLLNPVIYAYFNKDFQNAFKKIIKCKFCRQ
The data set can be described thus: Displacement of [3H]8-OH-DPAT from human recombinant 5HT1A receptor expressed in HEK293 cells at 100 uM measured after 60 mins by scintillation counting method relative to control. Format: cell-based.

The target in data set [14] is T4, 5-hydroxytryptamine receptor 2C (Homo sapiens) (UniProt P28335).
T4 sequence (whole entry): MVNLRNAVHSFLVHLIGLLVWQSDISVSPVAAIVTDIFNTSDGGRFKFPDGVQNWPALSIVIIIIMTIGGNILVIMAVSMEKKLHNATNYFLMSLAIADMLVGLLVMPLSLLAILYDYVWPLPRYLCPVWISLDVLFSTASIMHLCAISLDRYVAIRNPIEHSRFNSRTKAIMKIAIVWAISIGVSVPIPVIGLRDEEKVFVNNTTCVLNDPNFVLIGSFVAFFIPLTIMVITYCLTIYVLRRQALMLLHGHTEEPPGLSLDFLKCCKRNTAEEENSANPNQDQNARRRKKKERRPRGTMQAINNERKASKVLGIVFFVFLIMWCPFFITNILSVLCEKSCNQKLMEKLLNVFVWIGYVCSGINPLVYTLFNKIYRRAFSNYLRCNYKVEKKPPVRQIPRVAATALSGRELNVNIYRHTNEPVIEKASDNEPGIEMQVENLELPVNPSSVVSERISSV
The data set can be described thus: Displacement of [3H]mesulergine from human recombinant 5HT2C receptor expressed in HEK293 cells at 100 uM measured after 120 mins by scintillation counting method relative to control. The format is cell-based.

Data set [15] is filed under the species Rattus norvegicus. The experiment in a line: Displacement of [125I]apamin from rat cerebral cortex SKCa channel at 100 uM measured after 60 mins by scintillation counting method relative to control.
For data set [16], the species on record is Rattus norvegicus. The data set can be described thus: Displacement of [35S]TBPS from rat cerebral cortex GABA-gated chloride channel at 100 uM measured after 60 mins by scintillation counting method relative to control.
For data set [17], the target named is Sodium-dependent dopamine transporter (Homo sapiens) (UniProt Q01959). The data set can be described thus: Displacement of [3H]BTCP from human recombinant dopamine transporter expressed in CHO cells at 100 uM measured after 120 mins by scintillation counting method relative to control. Format: cell-based.
Chain of Sodium-dependent dopamine transporter (Homo sapiens) (Q01959 whole entry): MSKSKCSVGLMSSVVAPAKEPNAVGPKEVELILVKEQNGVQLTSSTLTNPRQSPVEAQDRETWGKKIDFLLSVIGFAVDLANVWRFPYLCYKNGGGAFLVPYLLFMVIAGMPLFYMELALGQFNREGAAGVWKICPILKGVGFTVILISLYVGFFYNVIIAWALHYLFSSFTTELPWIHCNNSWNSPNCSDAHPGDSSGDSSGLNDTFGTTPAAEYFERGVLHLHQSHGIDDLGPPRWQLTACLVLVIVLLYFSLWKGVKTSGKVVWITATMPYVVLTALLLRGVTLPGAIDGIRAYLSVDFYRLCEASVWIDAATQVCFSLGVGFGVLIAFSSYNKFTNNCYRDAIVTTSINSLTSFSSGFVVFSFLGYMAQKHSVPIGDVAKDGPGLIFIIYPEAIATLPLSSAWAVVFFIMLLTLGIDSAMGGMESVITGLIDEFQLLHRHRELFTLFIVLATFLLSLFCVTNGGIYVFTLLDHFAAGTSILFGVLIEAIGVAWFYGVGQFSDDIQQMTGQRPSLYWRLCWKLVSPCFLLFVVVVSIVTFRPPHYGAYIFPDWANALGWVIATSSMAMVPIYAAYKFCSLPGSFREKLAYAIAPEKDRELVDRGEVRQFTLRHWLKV

Regarding `Cc1ccccc1/C=C/C(=O)N[C@@H](C)CO`, the inhibition was 1.3% in data set [1]; 14.5% in data set [9]; 1.2% in data set [10]; 7.8% in the data set filed under Rattus norvegicus [11]; -6.1% in the data set filed under Rattus norvegicus [12]; 51.2% in data set [13]. Besides, the inhibition in data set [14] was 81.2%; in the data set filed under Rattus norvegicus [15] it was -5.8%; in the data set filed under Rattus norvegicus [16] it was 17.7%; in [17], 14.8%. In addition, the Activity result in the data set with Mus musculus [2] and in the data set with Rattus norvegicus [3] was “Non-Toxic” throughout. Moreover, the ED50 in the data set with Mus musculus [4] came to 42.6 mg/kg; in the data set with Rattus norvegicus [7], 25.8 mg/kg. Further, in [5], the TD50 turned out to be 150 mg/kg. The Time in the data set with Rattus norvegicus [6] worked out at 0.25 h. The selectivity ratio in [8] is greater than 19.4.
As to `CC(O)CNC(=O)/C=C/c1ccc(Cl)cc1` (stereo unspecified), the inhibition was 10% in [1]; 10.6% in [9]; 19.5% in [10]; -5.5% in the data set filed under Rattus norvegicus [11]; 15% in the data set listed under Rattus norvegicus [12]; 76.6% in data set [13]. The inhibition in data set [14] was 23.4%; in the data set filed under Rattus norvegicus [15], -2.5%; in the data set filed under Rattus norvegicus [16], 22.6%; in [17], 16%. Also, the Activity result in the data set on Mus musculus [2] and with Rattus norvegicus [3] was “Non-Toxic” each time. The ED50 in the data set with Mus musculus [4] came out at 55.6 mg/kg; in the data set on Rattus norvegicus [7] it was 77.3 mg/kg. The TD50 in data set [5] worked out at 180 mg/kg. In addition, the Time with Rattus norvegicus [6] turned out to be 0.5 h. The selectivity ratio in data set [8] was 6.47.
As to `CCC(CO)NC(=O)/C=C/c1ccc(Cl)cc1` (stereo unspecified), the inhibition in [1] was -0.4%; in data set [9] it was 4.3%; in [10] it was 48.3%; in the data set listed under Rattus norvegicus [11], -2.2%; in the data set listed under Rattus norvegicus [12] it was 18.1%; in data set [13] it was 28.2%. Further, the inhibition stood at 24.5% in [14], 2.3% in the data set filed under Rattus norvegicus [15], 37.2% in the data set filed under Rattus norvegicus [16] and 29.5% in data set [17]. Also, the Activity result in the data set on Mus musculus [2] and in the data set on Rattus norvegicus [3] was “Non-Toxic” in each case. In addition, the ED50 with Mus musculus [4] was 53.8 mg/kg; in the data set with Rattus norvegicus [7], 46.8 mg/kg. Also, the TD50 in data set [5] is 196 mg/kg. Also, the Time with Rattus norvegicus [6] stood at 0.5 h. Also, the selectivity ratio in data set [8] stood at 5.92.
